According to patent US8841310B2, “Combinations of a pyrimidine containing NNRTI with RT inhibitors” (Janssen R & D Ireland, priority 2003, dated 2014):
Where two headings read alike, the source gives them in different places.

Key:
[1] = system: HIV-1; details: cited from earlier work
[2] = system: HIV-1; details: human PBMCs and MT-2 cells, increasing drug concentrations; cited from earlier work
[3] = biological target: T1, HIV-1 RT (Human immunodeficiency virus type 1 group M subtype B, UniProt P04585); details: read-out: inhibition constant; cited from earlier work
T1 construct: The primary target of tenofovir diphosphate is reverse transcriptase (RT)

[4] = system: HIV-1 mutant 138K; test: MT-4 cell-based antiviral assay, SDM mutant; details: Human immunodeficiency virus 1, MT4
Procedure: (§1) Compound E-TMC278 was tested in a cell-based assay, using natural host cells of HIV. MT-4 cells (a cell line of human T cells) were infected with HIV-1 (wild type or mutants) and exposed to different concentrations of antiviral compound in the presence of 10% fetal calf serum. Cytotoxicity was determined in parallel with the antiviral activity so that the selectivity of the antiviral effect could be assessed. Active compounds have to penetrate the cell membrane in order to interfere with replication steps inside the cell.
(§2) After four days of incubation at 37° C., the viability of the HIV and mock-infected cells was assessed by an automated tetrazolium-based calorimetric assay. This method enabled the calculation of both the 50% inhibitory concentration for inhibition of viral cytopathicity (IC50), the IC90, and the 50% cytotoxic concentration (CC50). The ratio CC50/IC50, also called the selectivity index, is an indication of the specificity of the antiviral effect. Tested HIV strains included: Wild type (wt) HIV-1; a panel of single and double mutants, obtained by site-directed mutagenesis (SDM), and a panel of clinical isolates, selected for resistance against NNRTIs.
(§3) A limited panel of HIV-1 mutants was constructed using site-directed mutagenesis (SDM) and homologous recombination techniques. […] Nevirapine (NVP) and efavirenz (EFV) were included as controls.

[5] = system: HIV-1 mutant 225H; test: MT-4 cell-based antiviral assay, SDM mutant; details: Human immunodeficiency virus 1, MT4
Procedure: as §1, §2, §3

[6] = system: HIV-1 mutant 188C; test: MT-4 cell-based antiviral assay, SDM mutant; details: Human immunodeficiency virus 1, MT4
Procedure: as §1, §2, §3

[7] = system: HIV-1 double mutant 227L + 106A; test: MT-4 cell-based antiviral assay, SDM mutant
Procedure: as §1, §2, §3

[8] = system: HIV-1 mutant 190S; test: MT-4 cell-based antiviral assay, SDM mutant; details: Human immunodeficiency virus 1, MT4
Procedure: as §1, §2, §3

[9] = system: HIV-1 mutant 227L; test: MT-4 cell-based antiviral assay, SDM mutant; details: Human immunodeficiency virus 1, MT4
Procedure: as §1, §2, §3

[10] = system: HIV-1 mutant 190A; test: MT-4 cell-based antiviral assay, SDM mutant; details: Human immunodeficiency virus 1, MT4
Procedure: as §1, §2, §3

[11] = system: HIV-1 double mutant 101E + 103N; test: MT-4 cell-based antiviral assay, SDM mutant; details: Human immunodeficiency virus 1, MT4, 96 h
Procedure: as §1, §2, §3

[12] = system: HIV-1 double mutant 103N + 181I; test: MT-4 cell-based antiviral assay, SDM mutant; details: Human immunodeficiency virus 1, MT4, 96 h
Procedure: as §1, §2, §3

[13] = system: HIV-1 mutant 188H; test: MT-4 cell-based antiviral assay, SDM mutant; details: Human immunodeficiency virus 1, MT4
Procedure: as §1, §2, §3

[14] = system: HIV-1 mutant 103N; test: MT-4 cell-based antiviral assay, SDM mutant
Procedure: as §1, §2, §3

[15] = system: HIV-1 mutant 236L; test: MT-4 cell-based antiviral assay, SDM mutant; details: Human immunodeficiency virus 1, MT4
Procedure: as §1, §2, §3

[16] = system: HIV-1 double mutant 100I + 103N; test: MT-4 cell-based antiviral assay, SDM mutant
Procedure: as §1, §2, §3

[17] = system: HIV-1 mutant 101E; test: MT-4 cell-based antiviral assay, SDM mutant; details: Human immunodeficiency virus 1, MT4
Procedure: as §1, §2, §3

[18] = system: HIV-1 mutant 179D; test: MT-4 cell-based antiviral assay, SDM mutant; details: Human immunodeficiency virus 1, MT4
Procedure: as §1, §2, §3

[19] = system: HIV-1 mutant 108I; test: MT-4 cell-based antiviral assay, SDM mutant; details: Human immunodeficiency virus 1, MT4
Procedure: as §1, §2, §3

[20] = system: HIV-1 mutant 179E; test: MT-4 cell-based antiviral assay, SDM mutant; details: Human immunodeficiency virus 1, MT4
Procedure: as §1, §2, §3

[21] = system: HIV-1 mutant 106A; test: MT-4 cell-based antiviral assay, SDM mutant; details: Human immunodeficiency virus 1, MT4
Procedure: as §1, §2, §3

[22] = system: HIV-1 mutant 188L; test: MT-4 cell-based antiviral assay, SDM mutant
Procedure: as §1, §2, §3

[23] = system: HIV-1 mutant 227C; test: MT-4 cell-based antiviral assay, SDM mutant
Procedure: as §1, §2, §3

[24] = system: HIV-1 mutant 100I; test: MT-4 cell-based antiviral assay, SDM mutant
Procedure: as §1, §2, §3

[25] = system: HIV-1 mutant 181C; test: MT-4 cell-based antiviral assay, SDM mutant
Procedure: as §1, §2, §3

[26] = system: HIV-1 wild type; test: MT-4 cell-based antiviral assay (viral cytopathicity, tetrazolium); details: Human immunodeficiency virus 1, MT4
Procedure: as §1, §2

[27] = system: HIV-1 mutant 234I; test: MT-4 cell-based antiviral assay, SDM mutant; details: Human immunodeficiency virus 1, MT4
Procedure: as §1, §2, §3

[28] = system: wild type HIV-1; test: Development of resistance in vitro, MT4 cells, high multiplicity of infection; format: cell-based; details: wild type HIV-1, >1 infectious virus per cell, all tested concentrations, total 30 days
Description: Emerging virus was collected for pheno- and genotyping. Cultures without evidence of virus replication were further sub-cultivated in the presence of the same concentration of inhibitor for a total duration of 30 days (10 passages).

[29] = system: monotropic HIV strain Ba-L; test: MO-DC/CD4(+) T cell co-culture model of sexual HIV transmission; format: cell-based; details: in words
Description: Immature monocyte derived dendritic cells (immMO-DC) represent a good model for interstitial dendritic cells, which are early targets during sexual HIV transmission and important initiators of the immune response. These immMO-DC were used in “in vitro” models to test the prevention of HIV infection via sexual intercourse or related intimate contact between partners.
For instance, in one model, monocyte-derived dendritic cells (MO-DC) were infected for 2-hours with the monotropic HIV strain Ba-L at a multiplicity of infection (MOI) of 10^−3. After infection, cells were washed 6 times and resuspended in 10% BCS at 400.000 cells/ml. Autologous CD4(+) T cells were purified out of the lymphocyte fraction of the same elutration as the MO-DC and used at a concentration of 2×10^6 cells/ml ((ratio MO-DC/CD4(+) T: 1/5).
A serial dilution of a compound of formula (I) (test compound) was added to the MO-DC/CD4(+) T cell co-cultures. Each experiment was done in 96-well plates, in which each cup contained 50 μl of MO-DC, 50 μl of CD4(+) T cells and 100 μl of test compound. Half of the culture medium, with test compound, was refreshed twice weekly. Supernatants were analysed in ELISA after 14 days of culture. To determine antiviral activity, the test compound concentration able to suppress 50% of the viral replication at the end of the primary cultures (EC50) was measured.

[30] = system: HIV-1 double mutant 103N + 181C; test: MT-4 cell-based antiviral assay, SDM mutant; details: Human immunodeficiency virus 1, MT4, read-out: IC50 value
Procedure: as §1, §2, §3

[31] = system: HIV; details: short course of monotherapy; cited from earlier work
[32] = system: laboratory strain of HIV with combination of 65R, 74V, 115F and/or 184V; details: combination of resistance mutations; cited from earlier work
[33] = system: wild-type or zidovudine-resistant HIV-1 strains; details: MT-4 cells; cited from earlier work
[34] = system: HIV-1 M184V; details: cited from earlier work
[35] = system: clinical HIV strains expressing the M184V mutation; details: cited from earlier work
[36] = system: simian immunodeficiency virus; details: SIV after 5 to 15 weeks treatment, 30 mg/kg, newborn rhesus macaques; cited from earlier work
[37] = system: recombinant virus expressing the K65R mutation; details: in vitro; cited from earlier work
[38] = Human immunodeficiency virus 1, MT4, 96 h
[39] = Human immunodeficiency virus 1, MT4
[40] = Human immunodeficiency virus 1, MT4, 96 h, 100I + 103N, MT-4 cells
[41] = wild type, MT-4 cells, 10% fetal calf serum, read-out: IC50
[42] = Human immunodeficiency virus 1, MT4, read-out: IC50 value

In the case of Nc1nc(=O)n([C@@H]2CS[C@H](CO)O2)cc1F (racemic) [(−)-beta-enantiomer of FTC, Emtricitabine], the “in vitro anti-HIV-1 activity relative to the (+)-beta-enantiomer” value [1] is listed as 20 fold.

For Nc1nc(=O)n([C@@H]2CS[C@H](CO)O2)cc1F (racemic) [FTC, (±)-cis-4-amino-5-fluoro-1-[2-(hydroxymethyl)-1,3-oxathiolan-5-yl]-2(1H)-pyrimidinone], the “cycles of infection until highly drug-resistant variants dominated” value [2] is listed as “two or more”.

In the case of CC(Cn1cnc2c(N)ncnc21)OCP(=O)(O)OP(=O)(O)OP(=O)(O)O (stereo in doubt) [Tenofovir diphosphate], the Ki [3] is listed as roughly 900 nM.

For O=C1Nc2ccc(Cl)cc2[C@@](C#CC2CC2)(C(F)(F)F)O1 [EFV, efavirenz], the IC50 [4] was 1.3 nM, the IC50 [5] was 2 nM and the IC50 [6] was 5 nM. It also gave an IC50 [7, 38] of 8 nM, an IC50 [8] of 275 nM and an IC50 [9] of 0.3 nM. For the same compound, the IC50 [10] was 8 nM, the IC50 [11] was 84 nM and the IC50 [12] was 37 nM. The IC50 [13] was 9 nM, the IC50 [14, 39] was 28 nM and the IC50 [15] was 1 nM. It also gave an IC50 [16, 40] of 10000 nM, an IC50 [17] of 5 nM and an IC50 [18] of 6 nM. The IC50 [19] was 2 nM, the IC50 [20] was 5 nM and the IC50 [21] was 23 nM. For the same compound, the IC50 [22, 39] was 78 nM, the IC50 [23, 39] was 36 nM and the IC50 [24, 39] was 35 nM. For the same compound, the IC50 [25, 39] was 2 nM and the IC50 [26, 41] was 1.4 nM.

For Cc1ccnc2c1NC(=O)c1cccnc1N2C1CC1 [NVP, 11-cyclopropyl-5,11-dihydro-4-methyl-6H-dipyrido-[3,2-b: 2′,3′-e][1,4]diazepin-6-one], the IC50 [4] was 64 nM, the IC50 [5] was 171 nM and the IC50 [6] was 3760 nM. For the same compound, the IC50 [7, 38] was 10000 nM, the IC50 [8] was 10000 nM and the IC50 [9] was 78 nM. It also gave an IC50 [10] of 4100 nM, an IC50 [11] of 7030 nM and an IC50 [12] of 10000 nM. The IC50 [13] was 241 nM, the IC50 [14, 39] was 2880 nM and the IC50 [15] was 41 nM. It also gave an IC50 [16, 40] of 10000 nM, an IC50 [17] of 547 nM and an IC50 [18] of 161 nM. It also gave an IC50 [20] of 158 nM, an IC50 [21] of 2980 nM and an IC50 [27] of 45 nM. It also gave an IC50 [22, 39] of 10000 nM, an IC50 [23, 39] of 1820 nM and an IC50 [24, 39] of 597 nM. For the same compound, the IC50 [25, 39] was no less than 10000 nM, the IC50 [26, 41] was 81 nM and the “time to emergence of resistant virus” value [28] was 3 to 6 days.

With Cc1cc(C=CC#N)cc(C)c1Nc1ccnc(Nc2ccc(C#N)cc2)n1 [TMC278, 4-[[4-[[4-(2-cyanoethenyl)-2,6-dimethylphenyl]-amino]-2-pyrimidinyl]-amino]-benzonitrile] the “inhibition of HIV replication in MO-DC/CD4(+) T cell co-cultures” value [29] was “potently inhibits HIV replication”.

For Cc1cc(/C=C\C#N)cc(C)c1Nc1ccnc(Nc2ccc(C#N)cc2)n1 [Z-TMC278, (Z)-4-[[4-[[4-(2-cyanoethenyl)-2,6-dimethylphenyl]-amino]-2-pyrimidinyl]-amino]-benzonitrile], the IC50 [7, 42] was 4 nM, the IC50 [14, 42] was 1.6 nM and the IC50 ([16]; Human immunodeficiency virus 1, MT4, read-out: IC50 value, Table 1, HIV RT mutation: 100I + 103N) was 790 nM. The IC50 [30] was 40 nM, the IC50 [22, 42] was 32 nM and the IC50 [23, 42] was 4 nM. It also gave an IC50 [24, 42] of 6.3 nM, an IC50 [25, 42] of 5 nM and an IC50 ([26]; Table 1, HIV RT mutation: Wild-type, read-out: IC50 value) of 0.6 nM.

In the case of Nc1nc(NC2CC2)c2ncn([C@H]3C=C[C@@H](CO)C3)c2n1 [abacavir], the “average reduction in viral load” value [31] is given as “more than 1.4 log 10 RNA copies/ml”, the reduction in susceptibility [32] is given as 10 fold and the “passages until significant decrease in susceptibility” value [33] is given as “eight to ten”. For the same compound, the “decrease in HIV-1 susceptibility” value [34] was 3 fold.

In the case of C[C@H](Cn1cnc2c(N)ncnc21)OCP(=O)(O)O [tenofovir], the susceptibility in vitro [35] is given as “wild-type or increased susceptibility”, the decreased susceptibility [36] is given as “approximately 5 fold” and the decreased susceptibility [37] is given as 3 fold.
